Measured values from patent US8349845B2, “Thiazolopyrimidines for use in therapy” (Sosei Group Corporation, priority 2005, dated 2013).

Experiments:
CCI rats [1] = test: Single oral dose study, mechanical allodynia (von Frey PWT) in rat chronic constriction injury (CCI) model; assay type: in vivo; settings: 20 mg/kg p.o.; for paw withdrawal threshold (PWT): mean±S.E.M.
Description: The rat chronic constriction injury (CCI) model was prepared following the standard protocols (Bennett and Xie, 1988). Briefly, male Sprague-Dawley rats, weighing 150-175 gram at arrival, were anaesthetized with a 5% isofluorane/95% oxygen gas mixture followed by an i.p. injection of sodium pentobarbitone (50 mg/kg). The lateral side of the left hind limb was shaved and sterilized with 75% ethanol. An incision of about 1 cm was made to expose the sciatic nerve. Four loose ligations with 4-0 suture silk were made on the sciatic nerve. The wound was closed in layers with silk suture and the animals were placed in a recovering chamber with the temperature controlled at 30° C. The animals were then returned to their home cage after complete return of consciousness and the return of free movement. A dose of amoxicillin (0.1 ml, 15 mg) was routinely injected intraperitoneally after surgery to prevent infection. In CCI rats, the assessment of paw withdrawal threshold (PWT) in response to the mechanical stimulation started 14 days after surgery. […] The PWT was measured using a series of graduated von Frey hairs. The animals were placed in individual perspex boxes on a raised metal mesh for at least 30 min before the test. Starting from a filament of lower force (1 g), each filament was applied perpendicularly to the centre of the paw pad until it slightly bends for 6 seconds. If the animal withdrew or lifted the paw upon stimulation, then a hair with force immediately lower than that tested would be used. If no response was observed, then a hair with force immediately higher would be used. The lowest amount of force required to induce reliable responses (positive in 3 out of 5 trials) was recorded as the value of PWT. A suspension of Compound 1 was made with 5% DMSO in saline (10 mg/ml). The suspension was sonicated for at least 20 min before application. All data in this study are presented as mean±S.E.M. and are analysed with the student-t-test or one way ANOVA as appropriate. The significance level was set at P<0.05.

CCI rats [2] = test: Dose-response study, mechanical allodynia (PWT) in CCI model; assay type: in vivo, rat; settings: CCI rats, 1, 3, 10, 30 mg/kg orally, 30-360 min after dosing
Description: The methods for preparing CCI animals and assessing mechanical allodynia using von Frey hairs were as described in Example 1. Four doses of Compound 1 (1, 3, 10, 30 mg/kg) were given orally and the PWT was reassessed at 30, 60, 120, 180, 240 and 360 min after dosing.

[3] = tested on: ectopic discharge in CCI rats; test: Acute administration, spontaneous ectopic discharge in sural nerve of CCI rats; assay type: in vivo, rat
Description: The preparation of CCI model rats and the assessment of neuropathic pain state were as described for Example 1. The electrophysiological experiments were performed on CCI rats with neuropathic pain states confirmed by von Frey hair testing as previously described. Compound 1 suspension was made in a vehicle containing 1% DMSO, 66% PEG200 and 33% saline to 5 mg/ml. Rats with neuropathic pain were anaesthetized with thiobutabarbital sodium (inactin, 120 mg/kg, i.p. for induction and thereafter 60 mg/kg, i.p. for maintenance, if necessary). The arterial blood pressure and heart rate were routinely monitored and rectal temperature was continuously monitored and maintained at a physiological range using a thermo-blanket system. The skin of the left hind limb was incised and stitched onto a stainless steel “O” ring to form an oil pool. The sural nerve was carefully exposed and repeatedly teased into small bundles containing only one or a few fibres and examined for spontaneous activity. In acute experiments, when an active fibre was found, a period of at least 20 min control recording was obtained. Subsequently, the effects of the vehicle and Compound 1 (5 mg/kg, i.v.) were examined. Activity was monitored for at least 40 minutes following administration of the drug. The frequency of the spontaneous activity was monitored online and analysed offline after experiment. For i.v. injection, Compound 1 suspension (5 mg/ml) was prepared using a vehicle made of 1% DMSO, 66% polyethelene glycol (PEG 200) and 33% normal saline. The suspension was then sonicated for 30 min before administration.

[4] = tested on: ectopic discharge in CCI rats; test: Chronic dosing, generation of ectopic discharge and PWT in CCI rats; assay type: in vivo, rat
Description: After confirmation of neuropathic pain state on day 16 post-surgery, the animals (4 for vehicle group and 4 for drug treatment group) were given either vehicle (5% DMSO in saline) or Compound 130 mg/kg p.o., twice a day for 8 days. At the end of the dosing protocol, the PWT was reassessed before the electrophysiological experiment. The sural nerve was repeatedly teased into fine bundles for examination. For a fibre with spontaneous activity, the recording lasted for at least 1 min; for a fiber without obvious spontaneous activity, the recording lasted for at least 30 sec. In each sural nerve, as many fibres as possible were teased and recorded (more than 150 bundles on average in one animal).

CCI rats [5] = test: Tolerance liability in CCI model (PWT over 7 days of dosing); assay type: in vivo, rat
Description: The preparation of CCI model rats and the assessment of neuropathic pain state using von Frey hairs were as the same as described for Example 1. The PWT was assessed in the morning for 3 consecutive days prior to the surgery and on days 6, 14, 15 and 16 after surgery. Starting from day 16, the animals were either dosed with vehicle (5% DMSO in saline, 1 ml/kg) or Compound 130 mg/kg p.o., twice a day for 7 days. From day 16 onward, PWT was assessed thereafter every morning and 4 hours after dosing, up to day 23 post surgery.

[6] = tested on: rats with diabetic neuropathy; test: PWT in rats with streptozotocin-induced diabetic neuropathy; assay type: in vivo, rat
Description: Under isofluorane anaesthesia, adult male Sprague-Dawley rats (150-200 g) were given an intraperitoneal injection of streptozotocin (75 mg/kg, Calbiochem). After injection, particular care was taken to ensure that water and food were available at all time and the beddings were changed frequently. A week after streptozocin injection, the blood glucose content was examined using Advantage II with Accutech strips (Roche). Only rats with blood glucose higher than 12 mM/L (216 mg/DL) were chosen for behavioural study. The assessment of neuropathic pain state using von Frey hairs was the same as described for Example 1. Rats with lowered PWT (<4 g) were used for either vehicle (1 ml/kg, p.o. or Compound 1 (1, 3, 10, and 30 mg/kg p.o.) dosing. The PWT was reassessed at 1, 2, 3, 4 and 6 hours after oral dosing.

[7] = tested on: rat Brennan model of surgical pain; test: PWT in the rat Brennan model of surgical pain; assay type: in vivo
Description: The surgical pain model was prepared as described by Brennan et al (1996). Briefly, the rat was anaesthetised with 5% isofluorane in oxygen (2 L/min) for induction followed by an intravenous injection of sodium pentobarbitone (50 mg/kg) prior to surgery. The surgery was carried out under aseptic routines. The left hind paw was sterilized with 75% ethanol solution. A 1.5 cm longitudinal incision was made with a scalpel from about 0.5 cm of the heel edge towards the toes. The plantaris muscle and fascia were elevated and incised longitudinally but the structure of these tissues kept intact. After complete hemostasis with pressure, the skin was closed with stitches of 5-0 suture silk. The animal was routinely given an intraperitoneal injection of Amoxipen 15 mg/kg for prevention of infection after surgery. After surgery, the animals were placed in a temperature-controlled recovering chamber until full return of conscience and voluntary movement, before being returned to their home cages.

[8] = tested on: mice with autoimmune neuropathy; settings: preclinical studies; cited from earlier work
[9] = tested on: lipopolysaccharide-induced polyclonal antibody responses; settings: preclinical studies; cited from earlier work
[10] = CCI rats after chronic treatment
[11] = doses higher than 3 mg/kg p.o., dose-dependent

With O=C1N=C2SCCN2C(=O)C1Cc1ccc(Cl)cc1 (stereo not shown) [Compound 1, 6-(p-chlorobenzyl)-5H-2,3,6,7-tetrahydro-5,7-dioxothiazolo[3,2-a]pyrimidine] the “duration of the effect on PWT” value (CCI rats [1]) was over 6 h, the “paw withdrawal threshold (PWT)” value (CCI rats [1]; 2 hours after dosing, P<0.05 vs vehicle) was 2.6 ± 0.7 g and the “paw withdrawal threshold (PWT)” value (CCI rats [1]; 3 hours after dosing, P<0.01 vs vehicle) was 3.0 ± 0.7 g. For the same compound, the “paw withdrawal threshold (PWT)” value (CCI rats [1]; 4 hours after dosing, P<0.001 vs vehicle) was 6.3 ± 0.8 g, the “paw withdrawal threshold (PWT)” value (CCI rats [1]; 6 hours after dosing, P<0.001 vs pre-dosing control) was 4.0 ± 0.5 g and the “effect on PWT” value (CCI rats [2]) was “dose-dependently increased the PWT”. The “ectopic discharge after injection” value ([3]; first CCI preparation, 5 mg/kg i.v., reduced from 682 imps/min) was 426 imps/min, the “firing rate of ectopic discharge, % of control” value ([3]; four fibres, after administration, P<0.01) was 57.1±9.0 % of control and the “average firing rate of ectopic discharge after administration” value ([3]; four fibres, before drug 489.7±125.8 imps/min, P<0.01) was 307.6±113.4 imps/min. The “ectopic discharge after injection” value ([3]; second CCI preparation, iv injection, reduced from 298 imps/min) was 104 imps/min, the “PWT compared with vehicle-treated” value ([4]; 4 CCI rats, after 8 days of treatment p.o. twice a day) was “significantly higher” and the “averaged frequency of spontaneous activity” value [4, 10] was 888.9 ± 148.5 min⁻¹. For the same compound, the “comparison of averaged frequency of spontaneous activity with vehicle group” value [4, 10] was “failed to reveal significant difference”, the “fibres with spontaneous activity” value ([4]; among 633 fibres recorded from 4 treated rats (vehicle 197 of 602)) was 48 fibres and the “proportions of fibres with spontaneous activity” value ([4]; chronic treatment of CCI rats, vs vehicle, P<0.001 χ2 test) was “significantly reduced”. For the same compound, the “baseline PWT compared with vehicle group” value (CCI rats [5]; after the first day's treatment and throughout the 7 day dosing period, p.o. twice a day) was “higher than that observed in the vehicle group”, the “time for which CCI-induced mechanical allodynia is alleviated post-dose” value (CCI rats [5]; on repeat dosing) was 12 h and the “loss of efficacy in reversing lowered PWT” value (CCI rats [5]; over 7 days of treatment) was “no significant loss of efficacy”. For the same compound, the “changes in PWT” value ([6]; 1 mg/kg p.o.) was “Neither vehicle or Compound 1 at 1 mg/kg produced significant changes in PWT”, the “changes in PWT” value [6, 11] was “significantly increased the PWT” and the “time after dosing at which the effect on PWT was first observed” value [7] was 4 h. For the same compound, the “time after dosing up to which the effect on PWT lasted” value [7] was “up to 8 hours”, the “changes in PWT” value ([7]; 3 mg/kg, n=7, P>0.05) was “Neither vehicle (n=8) or Compound 1 at 3 mg/kg (n=7) produced significant changes in PWT” and the “analgesic effect after 6 hours” value ([7]; 10 mg/kg) was “had gone”. It also gave a PWT ([7]; 10 mg/kg, at 4 hours, from control level 1.50±0.36 g, P<0.05) of 2.60 ± 0.48 g, a PWT ([7]; 30 mg/kg, 6 hours post-dose, P<0.001 vs vehicle) of 5.28 ± 0.66 g and a PWT ([7]; 30 mg/kg, 8 hours post-dose, P<0.001 vs vehicle) of 4.16 ± 0.79 g. For the same compound, the PWT ([7]; 30 mg/kg, at 4 hours, from control level 1.82±3.8 g, P<0.001) was 3.80 ± 0.44 g, the “changes in PWT” value [7, 11] was “significantly increased the PWT” and the kidney function [8] was “restored kidney function”. The “lipopolysaccharide-induced polyclonal antibody responses” value [9] was “inhibited”.
